Here are results for 4 compounds from patent US20210283163A1, “COMPOSITIONS AND METHODS FOR THE TREATMENT OF ACUTE AND CHRONIC PRURITIS” (Duke University, priority 2018, published 2021).

For data set [1], the system named is DRG neurons. Description: Calcium imaging in cultured DRG neurons of Pirt-GCaMP3 mice. Type of data set: cell-based, mouse. The settings on record: for DRG neurons showing Ca2+ increase / responses: 544 neurons from 3 mice. On the procedure:
(§1) Primary Cultures of Mouse and Human Sensory Neurons. […] Cells were mechanically dissociated with a flame polished Pasteur pipette in the presence of 0.05% DNase I (Sigma).
(§2) Ca^2+ Imaging. […] The imaging buffer includes 140 mM NaCl, 10 mM D-(+)-Glucose, 1 mM MgCl2, 2 mM CaCl2, 5 mM KCl, 10 mM HEPES, pH=7.4, osmolarity=320 mOsm/L. Calcium signals were measured using green emitted light in a 3 s interval. Ca ^2+ signal amplitudes were presented as ΔF/F0=(Ft−F0)/F0 as ratio of fluorescence difference (Ft−F0) to basal value (F0). The average fluorescence intensity in the baseline period was taken as F0. Ca ^2+ imaging was also analyzed in HEK293-TRPA1 cell line after loading cells with […] fura2-AM (Invitrogen) for 40 min in the Ca^2+ imaging buffer. Ca^2+ imaging protocol was a ratio metric method with 340/380-nm wavelength light for dual excitation. Data were presented as ΔR/R0, determined as the fraction ΔR (Rt−R0) of the increase of a given ratio over baseline ratio (R0).

In data set [2] the test system is TG neurons. Put plainly: Calcium imaging in TG neurons of Pirt-GCaMP3 mice. Type of data set: cell-based, mouse. The settings on record: histamine 500 μM, CQ 1000 μM, AITC 200 μM; for TG neurons responding (calcium): miR-711 50 μM, 204 neurons. Here is the method: as §1, §2
Data set [3] deals with small-diameter DRG neurons. Description: Patch clamp, inward currents and action potentials in small-diameter mouse DRG neurons. Format: cell-based. The settings on record: for small-diameter neurons responding with inward currents or action potentials: AITC 15/90, miR-711 15/130. On the procedure:
Primary Cultures of Mouse and Human Sensory Neurons. DRGs or TGs were removed aseptically from mice (4-6 weeks) and incubated with collagenase (1.25 mg/mL, Roche)/dispase-II (2.4 units/mL, Roche) at 37° C. for 90 min, then digested with 0.25% trypsin for 8 min at 37° C., followed by 0.25% trypsin inhibitor. Cells were mechanically dissociated with a flame polished Pasteur pipette in the presence of 0.05% DNase I (Sigma). DRG cells were plated on glass coverslips and grown in a neurobasal defined medium (with 2% B27 supplement, Invitrogen) with 5 μM AraC and 5% CO2 at 36.5° C. DRG neurons were grown for 24 hr before use.
(§3) Whole-Cell Patch Clamp Recordings in HEK293 Cells, CHO Cells, and DRG Neurons. Whole-cell patch clamp recordings were performed at room temperature using an Axopatch-200B amplifier (Axon Instruments) with a Digidata 1440B (Axon Instruments). In this study, we only examined small-diameter mouse DRG neurons (<25 μM) and small-diameter human DRG neurons (<55 μM). The patch pipettes were pulled from borosilicate capillaries (World Precision Instruments) using a P-97 Flaming/Brown micropipette puller (Sutter Instrument). Pipette resistance was 4-6 MΩ for whole-cell and outside-out recording. For inward current recordings in mouse and human DRG neurons, HEK293 cells, and CHO cells, the internal solution contains (in mM): 140 CsCl, 10 EGTA, 10 HEPES, and 2 Mg-ATP, adjusted to pH 7.3 with CsOH. Whole cell recordings were performed in an extracellular solution that contains (in mM): 140 NaCl, 5 KCl, 2 MgCl2, 10 HEPES, and 10 glucose, adjusted to pH 7.4 with NaOH and osmolarity to 300-310 mOsm. […] Action potential recordings were performed in small-diameter DRG neurons, with the following solutions: i) internal pipette solution contains: 126 mM K-gluconate, 10 mM NaCl, 1 mM MgCl2, 10 mM EGTA, 10 mM HEPES and 2 mM Na-ATP, adjusted to pH 7.4 with KOH and osmolarity to 295-300 mOsm), and ii) extracellular solution contains: 140 mM NaCl, 5 mM KCl, 2 mM MgCl2, 2 mM CaCl2, 10 mM HEPES, 10 mM glucose, adjusted to pH 7.4 with KOH.
In general terms: Patch clamp records ionic current or voltage across a cell membrane.

Data set [4] addresses hTRPA1 (Homo sapiens, UniProt O75762). Description: Whole-cell patch clamp, inward currents in HEK293 cells expressing hTRPA1. Type of data set: cell-based. Here is the method:
Cell Culture and Transfection. CD4^+ Myla cell line was cultured in RPMI 1640 media (GIBCO), supplemented with 2 mM Glutamine (GIBCO), 100 U/mL IL-2 (Sigma), 100 U/mL IL-4 (Sigma), and 10% human AB serum (Sigma). HuT 102 cell line was cultured in RPMI 1640 supplemented with pyruvate, HEPES, and 10% (v/v) fetal bovine serum (HyClone). HEK293-hTRPA1 stable cell line was cultured in MEM (GIBCO) containing 2 mM Glutamine, 4 μg/mL Blasticidin, 10% FBS (v/v). B16 and CHO cells were cultured in high glucose (4.5 g/L) Dulbecco's Modified Eagle's Medium (GIBCO) containing 10% (v/v) fetal bovine serum (GIBCO). Culture media were supplemented with 50 units/mL of penicillin and 50 μg/mL streptomycin, and cultures were maintained with 5% CO2 in 37° C. incubator. Transfection (2 μg cDNA) was performed with Lipofectamine™ 2000 Reagent (Invitrogen) at 80% confluency and the transfected cells were cultured in the same media for 48 hr before electrophysiological and biochemical studies.
as §3

Setting [5] is: miR-711 50 μM, histamine 500 μM, CQ 1,000 μM, AITC 200 μM.

hTRPA1, sequence (O75762 whole entry): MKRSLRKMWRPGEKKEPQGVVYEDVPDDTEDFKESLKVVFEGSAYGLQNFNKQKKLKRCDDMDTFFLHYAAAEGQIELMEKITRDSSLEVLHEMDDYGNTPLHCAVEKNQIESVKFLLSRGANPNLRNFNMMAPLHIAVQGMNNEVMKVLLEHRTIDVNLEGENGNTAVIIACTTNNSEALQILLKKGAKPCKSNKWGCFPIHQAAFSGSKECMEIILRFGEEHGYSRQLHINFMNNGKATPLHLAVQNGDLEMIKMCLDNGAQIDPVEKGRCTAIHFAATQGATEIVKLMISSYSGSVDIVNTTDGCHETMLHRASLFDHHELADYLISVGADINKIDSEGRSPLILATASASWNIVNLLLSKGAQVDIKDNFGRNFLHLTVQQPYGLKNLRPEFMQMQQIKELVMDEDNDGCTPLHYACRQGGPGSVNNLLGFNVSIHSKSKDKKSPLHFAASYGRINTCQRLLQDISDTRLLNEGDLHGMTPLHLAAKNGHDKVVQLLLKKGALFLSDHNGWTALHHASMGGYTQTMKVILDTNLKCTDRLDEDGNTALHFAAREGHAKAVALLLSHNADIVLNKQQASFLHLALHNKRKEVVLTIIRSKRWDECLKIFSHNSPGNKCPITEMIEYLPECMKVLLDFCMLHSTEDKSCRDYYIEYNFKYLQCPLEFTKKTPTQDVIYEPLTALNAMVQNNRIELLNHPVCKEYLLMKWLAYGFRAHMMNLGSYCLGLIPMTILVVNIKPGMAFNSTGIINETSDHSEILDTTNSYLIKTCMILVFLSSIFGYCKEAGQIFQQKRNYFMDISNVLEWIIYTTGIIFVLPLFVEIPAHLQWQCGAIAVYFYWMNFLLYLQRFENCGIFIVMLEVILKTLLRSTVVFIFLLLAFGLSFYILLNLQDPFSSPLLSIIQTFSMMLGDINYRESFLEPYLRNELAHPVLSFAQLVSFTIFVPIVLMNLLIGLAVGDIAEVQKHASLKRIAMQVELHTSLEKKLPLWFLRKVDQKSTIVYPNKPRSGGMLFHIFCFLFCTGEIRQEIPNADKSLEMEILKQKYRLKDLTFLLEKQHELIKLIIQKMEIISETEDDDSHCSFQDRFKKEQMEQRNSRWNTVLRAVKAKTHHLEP

In the case of `C=CCN=C=S` [AITC], in data set [1] (histamine 500 μM, CQ 1,000 μM, AITC 200 μM), the “miR-711-responsive DRG neurons that also responded” value is reported as “all”. Besides, the “DRG neurons showing Ca2+ increase / responses” value in data set [1] (setting [5]) turned out to be 22.6%. For the same compound, in data set [2], the “miR-711-responsive TG neurons that also responded” value is given as 100% and the “TG neurons responding (calcium)” value came to 32.4%. Also, the “small-diameter neurons responding with inward currents or action potentials” value in data set [3] came to 16.7%.
As for “miR-711: mmu-miR-711: gggacccggggagagauguaag (SEQ ID NO: 5) (GGGACCCGGGGAGAGAUGUAAG; chemistry not given here)”, the “calcium signaling in DRG neurons” value in data set [1] (10 μM) is “did not evoke meaningful calcium signaling”. Moreover, the “DRG neurons showing Ca2+ increase / responses” value in data set [1] (setting [5]) was determined as 3.9%. Also, in data set [1] (miR-711 50 μM, 15 of 310 neurons), the “DRG neurons showing calcium responses” value is recorded as 4.8%. Also, in data set [4] (10 μM), the “desensitization of TRPA1 after second application” value was “did not induce obvious desensitization”. Further, in data set [4] (10 μM, I/V curve), the current-voltage relationship entry was “outward rectification” and the “reversal potential of evoked current” value worked out at 0 mV. In data set [4] (bath application, miRNAs and core sequence 10 μM, AITC 50 μM), the inward currents result is on record as “produced inward currents”. The “potency for inducing TRPA1 activation (dose-response curve)” value in data set [4] (compared with AITC) is on record as “more potent than AITC”. In addition, the “latency of inward currents” value in data set [4] (miR-711 10 μM versus AITC 50 μM, bath perfusion) is given as “shorter than that of AITC”. Besides, the “TG neurons responding (calcium)” value in data set [2] was 12.3%. For the same compound, in data set [3] (10 μM, WT mice), the “action potentials in small-diameter DRG neurons” value is reported as “induced action potentials” and the “inward currents in small-diameter DRG neurons” value is recorded as “induced rapid inward currents”. For the same compound, the “small-diameter neurons responding with inward currents or action potentials” value in data set [3] is listed as 11.5%. In data set [3] (TRPA1-deficient neurons), the “miR-711-induced excitation (action potentials)” value was “lost”. Further, in data set [3] (Trpa1 knockout mice), the “miR-711-induced inward currents in DRG neurons of knockout mice” value is listed as “abolished”. Further, in data set [3] (compared with AITC), the action potential duration entry is “shorter duration” and the “after-hyperpolarization of the action potentials” value is “did not differ”.
As to `CCC(=N\O)/C(C)=C/c1ccc(F)cc1` [A967079, (1E,3E)-1-(4-Fluorophenyl)-2-methyl-1-pentene-3-one oxime], in data set [1] (miR-711 50 μM, A967079 10 μM), the “block of miR-711-evoked calcium responses in DRG neurons” value is recorded as “completely blocked”. The “block of miR-711-evoked currents” value in data set [4] (A967079 10 and 50 μM) is “dose-dependently blocked”. In data set [3] (A967079 10 μM), the “block of miR-711-induced action potentials” value is “blocked” and the “block of miR-711-induced inward currents in DRG neurons” value was “blocked”.
Consider “NH2-FRNELAYPVLTFGQL-COOH (H-FRNELAYPVLTFGQL-OH) [blocking peptide]”, for which, in data set [4] (peptide 25 μM), the “effect on AITC-induced inward current” value was “did not affect” and the “inhibition of miR-711-induced TRPA1 inward currents” value is recorded as “suppressed”.
